# In patent US20060069132A1, “Azolecarboxamide herbicides” (priority 2004, published 2006):
# What was measured:
# cocklebur = test: Test C pre-/postemergence herbicide test; type: in vivo, Xanthium strumarium
# From the text: (§1) Seeds of plant species selected from bermudagrass (Cynodon dactylon (L.) Pers.), Surinam grass (Urochloa decumbens (Staph) R. D. Webster, previously named Brachiaria decumbens Stapf), cocklebur (Xanthium strumarium L.), corn (Zea mays L.), large crabgrass (Digitaria sanguinalis (L.) Scop.), woolly cupgrass (Eriochloa villosa (Thunb.) Kunth), giant foxtail (Setaria faberi Herrm.), goosegrass (Eleusine indica (L.) Gaertn.), johnsongrass (Sorghum halepense (L.) Pers.), kochia (Kochia scoparia (L.) Schrad.), lambsquarters (Chenopodium album L.), morningglory (Ipomoea coccinea L.), eastern black nightshade (Solanum ptycanthum Dunal), yellow nutsedge (Cyperus esculentus L.), pigweed (Amaranthus retroflexus L.), common ragweed (Ambrosia elatior L.), soybean (Glycine max (L.) Merr.), common (oilseed) sunflower (Helianthus annuus L.) and velvetleaf (Abutilon theophrasti Medik.) were planted and treated preemergence with test chemicals formulated in a non-phytotoxic solvent mixture which included a surfactant.
# (§2) At the same time, plants selected from these crop and weed species and also winter barley (Hordeum vulgare L.), blackgrass (Alopecurus myosuroides Huds.), canarygrass (Phalaris minor Retz.), chickweed (Stellaria media (L.) Vill.), downy bromegrass (Bromus tectorum L.), green foxtail (Setaria viridis (L.) Beauv.), Italian ryegrass (Lolium multiflorum Lam.), wheat (Triticum aestivum L.), wild oat (Avenafatua L.) and windgrass (Apera spica-venti (L.) Beauv.) were treated with postemergence applications of some of the test chemicals formulated in the same manner. Plants ranged in height from 2 to 18 cm (1- to 4-leaf stage) for postemergence treatments. Plant species in the flooded paddy test consisted of rice (Oryza sativa), smallflower umbrella sedge (Cyperus difformis L.), ducksalad (Heteranthera limosa (Sw.) Willd.) and barnyardgrass (Echinochloa crus-galli (L.) Beauv.) grown to the 2-leaf stage for testing. Treated plants and controls were maintained in a greenhouse for 12 to 14 days, after which time all species were compared to controls and visually evaluated. Plant response ratings, summarized in Table C, are based on a scale of 0 to 100 where 0 is no effect and 100 is complete control. A dash (-) response means no test result.
# giant foxtail = test: Test A pre-/postemergence herbicide test; type: in vivo, Setaria faberi
# Procedure, shortened: (§3)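 Sandy loam soil given preemergence directed spray; plants at 2 to 10 cm, one- to two-leaf stage, sprayed to runoff postemergence, compounds in non-phytotoxic solvent with surfactant. Injury rated visually versus untreated controls after about ten greenhouse days, 0 (no effect) to 100 (complete control); dash means not tested.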
# bermudagrass = test: Test C pre-/postemergence herbicide test; type: in vivo, Cynodon dactylon
# From the text: as §1, §2
# barnyardgrass = test: Test A pre-/postemergence herbicide test; type: in vivo, Echinochloa crus-galli
# Procedure, shortened: as §3
# redroot pigweed = test: Test A pre-/postemergence herbicide test; type: in vivo, Amaranthus retroflexus
# Procedure, shortened: as §3
# kochia = test: Test C pre-/postemergence herbicide test; type: in vivo, Kochia scoparia; conditions: preemergence
# From the text: as §1, §2
# woolly cupgrass = test: Test C pre-/postemergence herbicide test; type: in vivo, Eriochloa villosa; conditions: preemergence
# From the text: as §1, §2
# ducksalad = test: Test C flooded paddy test; type: in vivo, Heteranthera limosa
# lambsquarters = test: Test C pre-/postemergence herbicide test; type: in vivo, Chenopodium album; conditions: preemergence
# From the text: as §1, §2
# [1] = tested on: smallflower umbrella sedge; test: Test C flooded paddy test; type: in vivo, Cyperus difformis
# goosegrass = test: Test C pre-/postemergence herbicide test; type: in vivo, Eleusine indica; conditions: preemergence
# From the text: as §1, §2
# morningglory = test: Test C pre-/postemergence herbicide test; type: in vivo, Ipomoea coccinea; design: key to Plant response rating, Morningglory: 0 = no effect, 100 = complete control; conditions: preemergence
# From the text: as §1, §2
# [2] = 62 g ai/ha, preemergence, scale 0 to 100
# [3] = 125 g ai/ha, scale 0 (no effect) to 100 (complete control), visual, 12 to 14 days, preemergence
# [4] = 250 g ai/ha, scale 0-100, preemergence
# [5] = Preemergence, 500 g ai/ha, scale 0 to 100, 0 no effect, 100 complete control
# [6] = Postemergence, 500 g ai/ha, 0 to 100 scale, 0 no effect, 100 complete control
# [7] = Postemergence, 2000 g ai/ha, 0 to 100 scale, 0 no effect, 100 complete control
# [8] = Preemergence, 2000 g ai/ha, visual rating, 0 to 100 scale (0 no effect, 100 complete control)
# [9] = preemergence, 500 g ai/ha, visual injury, 0 to 100 scale (0 no effect, 100 complete control)
# [10] = 62 g ai/ha, preemergence, scale 0 to 100, 0 no effect, 100 complete control
# [11] = 125 g ai/ha, scale 0 (no effect) to 100 (complete control), visual, 12 to 14 days
# [12] = 500 g ai/ha, scale 0 to 100 (0 no effect, 100 complete control), visual, 12 to 14 days
# [13] = 125 g ai/ha, scale 0 to 100 (0 no effect, 100 complete control)
# [14] = 250 g ai/ha, scale of 0 to 100, 0 is no effect, 100 is complete control
# [15] = 500 g ai/ha, visual rating after 12 to 14 days, scale 0 to 100 (0 no effect, 100 complete control)
# [16] = 500 g ai/ha, scale 0 to 100 (0 no effect, 100 complete control), visual, 12 to 14 days, preemergence
compound,measurement,setting,value
CCn1nc(C(C)(C)C)cc1C(=O)Nc1cncc(C(=O)N(C)C)n1 [Compound 287],"Plant response rating, Cocklebur",cocklebur; [2],0
same,"Plant response rating, Cocklebur",cocklebur; [3],0
same,"Plant response rating, Cocklebur",cocklebur; [4],10
same,Cocklebur plant response rating,cocklebur; [5],60
same,"Foxtail, Giant plant response rating",giant foxtail; [6],40
same,"Plant response rating, Foxtail, Giant",giant foxtail; [7],90
same,"Foxtail, Giant plant response rating",giant foxtail; [8],100
same,"Foxtail, Giant plant response rating",giant foxtail; [9],65
same,"Plant response rating, Bermudagrass",bermudagrass; [10],85
same,"Plant response rating, Bermudagrass",bermudagrass; [3],95
same,"Plant response rating, Bermudagrass",bermudagrass; [4],95
same,Bermudagrass plant response rating,bermudagrass; [5],95
same,Barnyardgrass plant response rating,barnyardgrass; [6],70
same,"Plant response rating, Barnyardgrass",barnyardgrass; [7],90
same,Barnyardgrass plant response rating,barnyardgrass; [8],100
same,Barnyardgrass plant response rating,barnyardgrass; [9],95
same,Pigweed plant response rating,redroot pigweed; [6],50
same,"Plant response rating, Pigweed",redroot pigweed; [7],80
same,Pigweed plant response rating,redroot pigweed; [8],100
same,Pigweed plant response rating,redroot pigweed; [9],100
same,"Plant response rating, Kochia","kochia; 62 g ai/ha, scale 0 to 100",85
same,"Plant response rating, Kochia",kochia; [11],100
same,"Plant response rating, Kochia","kochia; 250 g ai/ha, scale 0-100",100
same,"Plant response rating, Kochia",kochia; [12],100
same,"Plant response rating, Cupgrass, Woolly","woolly cupgrass; 62 g ai/ha, scale 0 to 100",0
same,"Plant response rating, Cupgrass, Woolly",woolly cupgrass; [11],0
same,"Plant response rating, Cupgrass, Woolly","woolly cupgrass; 250 g ai/ha, scale 0-100",10
same,"Plant response rating, Cupgrass, Woolly",woolly cupgrass; [12],35
same,Ducksalad plant response rating,"ducksalad; 62 g ai/ha, scale 0 to 100",0
same,Ducksalad plant response rating,ducksalad; [13],30
same,Ducksalad plant response rating,ducksalad; [14],40
same,"Plant response rating, Ducksalad",ducksalad; [15],45
same,"Plant response rating, Lambsquarters","lambsquarters; 62 g ai/ha, scale 0 to 100",100
same,"Plant response rating, Lambsquarters",lambsquarters; [11],100
same,"Plant response rating, Lambsquarters","lambsquarters; 250 g ai/ha, scale 0-100",100
same,"Plant response rating, Lambsquarters",lambsquarters; [12],100
same,"Sedge, Umbrella plant response rating","[1]; 62 g ai/ha, scale 0 to 100",0
same,"Sedge, Umbrella plant response rating",[1]; [13],35
same,"Sedge, Umbrella plant response rating",[1]; [14],70
same,"Plant response rating, Sedge, Umbrella",[1]; [15],75
same,"Plant response rating, Goosegrass","goosegrass; 62 g ai/ha, scale 0 to 100",70
same,"Plant response rating, Goosegrass",goosegrass; [11],100
same,"Plant response rating, Goosegrass","goosegrass; 250 g ai/ha, scale 0-100",100
same,"Plant response rating, Goosegrass",goosegrass; [12],100
CCN(CC)C(=O)c1cccc(NC(=O)c2nn(C(C)(C)C)nc2C)c1 [Compound 418],"Plant response rating, Cocklebur",cocklebur; [2],0
same,"Plant response rating (0 = no effect, 100 = complete control), Cocklebur","cocklebur; 125 g ai/ha, preemergence",0
same,"Plant response rating, Cocklebur",cocklebur; [4],30
same,"Plant response rating, Cocklebur",cocklebur; [16],35
same,"Plant response rating, Bermudagrass",bermudagrass; [10],100
same,"Plant response rating (0 = no effect, 100 = complete control), Bermudagrass","bermudagrass; 125 g ai/ha, preemergence",100
same,"Plant response rating, Bermudagrass",bermudagrass; [4],100
same,"Plant response rating, Bermudagrass",bermudagrass; [16],100
same,"Plant response rating, Kochia","kochia; 62 g ai/ha, scale 0 to 100",65
same,"Plant response rating (0 = no effect, 100 = complete control), Kochia",kochia; 125 g ai/ha,80
same,"Plant response rating, Kochia","kochia; 250 g ai/ha, scale 0-100",85
same,"Plant response rating, Kochia",kochia; [12],95
same,"Plant response rating, Cupgrass, Woolly","woolly cupgrass; 62 g ai/ha, scale 0 to 100",0
same,"Plant response rating (0 = no effect, 100 = complete control), Cupgrass, Woolly",woolly cupgrass; 125 g ai/ha,0
same,"Plant response rating, Cupgrass, Woolly","woolly cupgrass; 250 g ai/ha, scale 0-100",10
same,"Plant response rating, Cupgrass, Woolly",woolly cupgrass; [12],95
same,"Plant response rating, Lambsquarters","lambsquarters; 62 g ai/ha, scale 0 to 100",95
same,"Plant response rating (0 = no effect, 100 = complete control), Lambsquarters",lambsquarters; 125 g ai/ha,100
same,"Plant response rating, Lambsquarters","lambsquarters; 250 g ai/ha, scale 0-100",100
same,"Plant response rating, Lambsquarters",lambsquarters; [12],100
same,"Plant response rating, Morningglory","morningglory; 62 g ai/ha, scale 0 to 100",20
same,"Plant response rating (0 = no effect, 100 = complete control), Morningglory",morningglory; 125 g ai/ha,70
same,"Plant response rating, Morningglory",morningglory; [12],100
same,"Plant response rating, Goosegrass","goosegrass; 62 g ai/ha, scale 0 to 100",55
same,"Plant response rating (0 = no effect, 100 = complete control), Goosegrass",goosegrass; 125 g ai/ha,100
same,"Plant response rating, Goosegrass","goosegrass; 250 g ai/ha, scale 0-100",100
same,"Plant response rating, Goosegrass",goosegrass; [12],100
